How the values were obtained:
MV4-11 = experiment: Cytotoxicity against human MV4-11 cells assessed as decrease in cell viability after 48 hrs by MTT assay; format: functional, cell-based; conditions: MV4-11, 48 h
THP-1 = experiment: Cytotoxicity against human THP1 cells assessed as decrease in cell viability after 48 hrs by MTT assay; format: functional, cell-based; conditions: THP-1, 48 h
KG-1 = experiment: Cytotoxicity against human KG1 cells assessed as decrease in cell viability after 48 hrs by MTT assay; format: functional, cell-based; conditions: KG-1, 48 h
[1] = Cytotoxicity against human KOCL48 cells assessed as decrease in cell viability after 48 hrs by MTT assay; format: functional, cell-based
MOLM-13 = experiment: Cytotoxicity against human MOLM13 cells assessed as decrease in cell viability after 48 hrs by MTT assay; format: functional, cell-based; conditions: MOLM-13, 48 h
KG-1a = experiment: Cytotoxicity against human KG1a cells assessed as decrease in cell viability after 48 hrs by MTT assay; format: functional, cell-based
K562 = experiment: Cytotoxicity against human K562 cells assessed as decrease in cell viability after 48 hrs by MTT assay; format: functional, cell-based; conditions: K562, 48 h
ML-2 = experiment: Cytotoxicity against human ML2 cells assessed as decrease in cell viability after 48 hrs by MTT assay; format: functional, cell-based; conditions: ML-2, 48 h
U-937 = experiment: Cytotoxicity against human U937 cells assessed as decrease in cell viability after 48 hrs by MTT assay; format: functional, cell-based; conditions: U-937, 48 h
CAKI-1 = experiment: Cytotoxicity against human Caki1 cells assessed as decrease in cell viability after 72 hrs by MTT assay; format: functional, cell-based; conditions: CAKI-1, 72 h
769-P = experiment: Cytotoxicity against human 769-P cells assessed as decrease in cell viability after 72 hrs by MTT assay; format: functional, cell-based
786-0 = experiment: Cytotoxicity against human 786-O cells assessed as decrease in cell viability after 72 hrs by MTT assay; format: functional, cell-based; conditions: 786-0, 72 h
[2] = Cytotoxicity against human VMRC-RCW cells assessed as decrease in cell viability after 72 hrs by MTT assay; format: functional, cell-based
CAKI-2 = experiment: Cytotoxicity against human Caki2 cells assessed as decrease in cell viability after 72 hrs by MTT assay; format: functional, cell-based; conditions: CAKI-2, 72 h
Lu-99 cell line [3] = experiment: Cytotoxicity against human LU99 cells assessed as decrease in cell viability after 72 hrs by CCK8 assay; format: functional, cell-based; conditions: Lu-99, 72 h
Daudi = experiment: Cytotoxicity against human Daudi cells assessed as decrease in cell viability after 72 hrs by CCK8 assay; format: functional, cell-based
MKN-1 = experiment: Cytotoxicity against human MKN1 cells assessed as decrease in cell viability after 72 hrs by CCK8 assay; format: functional, cell-based; conditions: MKN-1, 72 h
HCT-116 = experiment: Cytotoxicity against human HCT116 cells assessed as decrease in cell viability after 72 hrs by CCK8 assay; format: functional, cell-based; conditions: HCT-116, 72 h
MIA PaCa-2 = experiment: Cytotoxicity against human MIAPaCa2 cells assessed as decrease in cell viability after 72 hrs by CCK8 assay; format: functional, cell-based; conditions: MIA PaCa-2, 72 h
UMUC3 = experiment: Cytotoxicity against human UM-UC-3 cells assessed as decrease in cell viability after 72 hrs by CCK8 assay; format: functional, cell-based; conditions: UMUC3, 72 h
MKN-45 = experiment: Cytotoxicity against human MKN45 cells assessed as decrease in cell viability after 72 hrs by CCK8 assay; format: functional, cell-based; conditions: MKN-45, 72 h
DU-4475 = experiment: Cytotoxicity against human DU4475 cells assessed as decrease in cell viability after 72 hrs by CCK8 assay; format: functional, cell-based; conditions: DU-4475, 72 h
A549 [4] = experiment: Cytotoxicity against human A549 cells assessed as decrease in cell viability after 72 hrs by CCK8 assay; format: functional, cell-based; conditions: A549, 72 h
CWR22R = experiment: Cytotoxicity against human 22Rv1 cells assessed as decrease in cell viability after 72 hrs by CCK8 assay; format: functional, cell-based; conditions: 22Rv1, 72 h
T47D = experiment: Cytotoxicity against human T47D cells assessed as decrease in cell viability after 72 hrs by CCK8 assay; format: functional, cell-based
HepG2 = experiment: Cytotoxicity against human HepG2 cells assessed as decrease in cell viability after 72 hrs by CCK8 assay; format: functional, cell-based; conditions: HepG2, 72 h
MDA-MB-231 = experiment: Cytotoxicity against human MDA-MB-231 cells assessed as decrease in cell viability after 72 hrs by CCK8 assay; format: functional, cell-based; conditions: MDA-MB-231, 72 h
A549 [5] = experiment: Antitumor activity against human A549 cells xenografted in BALB/cSLC-nu/nu mouse assessed as tumor growth inhibition at 5 mg/kg, iv qd administered for 14 days measured on day 15 relative to control; format: functional; conditions: read-out: TGI
Lu-99 cell line [6] = experiment: Antitumor activity against human LU99 cells xenografted in BALB/cSLC-nu/nu mouse assessed as tumor growth inhibition at 5 mg/kg, iv qd administered for 14 days measured on day 15 relative to control; format: functional; conditions: Lu-99, iv, read-out: TGI
Caov-3 cell line = experiment: Cytotoxicity against human Caov3 cells assessed as decrease in cell viability after 72 hrs by CCK8 assay; format: functional, cell-based; conditions: Caov-3, 72 h
PA-1 = experiment: Cytotoxicity against human PA1 cells assessed as decrease in cell viability after 72 hrs by CCK8 assay; format: functional, cell-based; conditions: PA-1, 72 h
[7] = Cytotoxicity against human ES2 cells assessed as decrease in cell viability after 72 hrs by CCK8 assay; format: functional, cell-based; conditions: ES-2, 72 h
SK-OV-3 = experiment: Cytotoxicity against human SKOV3 cells assessed as decrease in cell viability after 72 hrs by CCK8 assay; format: functional, cell-based; conditions: SK-OV-3, 72 h
OV-90 = experiment: Cytotoxicity against human OV90 cells assessed as decrease in cell viability after 72 hrs by CCK8 assay; format: functional, cell-based; conditions: OV-90, 72 h
SW626 = experiment: Cytotoxicity against human SW626 cells assessed as decrease in cell viability after 72 hrs by CCK8 assay; format: functional, cell-based; conditions: SW626, 72 h
OVCAR-3 = experiment: Cytotoxicity against human OVCAR3 cells assessed as decrease in cell viability after 72 hrs by CCK8 assay; format: functional, cell-based; conditions: OVCAR-3, 72 h
A2780 = experiment: Cytotoxicity against human A2780 cells assessed as decrease in cell viability after 72 hrs by CCK8 assay; format: functional, cell-based; conditions: A2780, 72 h
[8] = Cytotoxicity against human OVSAHO cells assessed as decrease in cell viability after 72 hrs by CCK8 assay; format: functional, cell-based
RMG-I = experiment: Cytotoxicity against human RMG-1 cells assessed as decrease in cell viability after 72 hrs by CCK8 assay; format: functional, cell-based
[9] = Cytotoxicity against human OVTOKO cells assessed as decrease in cell viability after 72 hrs by CCK8 assay; format: functional, cell-based

Molecule `Cc1cc(O)c(-c2ccc([C@@H](C)CN)cc2)c2c1[nH]c(=O)c1sccc12` has an IC50 (MV4-11) of 10.7 nM, an IC50 (THP-1) of 23.5 nM and an IC50 (KG-1) of 48.7 nM. For the same molecule, the IC50 [1] was 7.1 nM, the IC50 (MOLM-13) was 9 nM and the IC50 (KG-1a) was 26.2 nM. The IC50 (K562) was 36.8 nM, the IC50 (ML-2) was 17.9 nM and the IC50 (U-937) was 19.2 nM. For the same molecule, the IC50 (CAKI-1) was 27.8 nM, the IC50 (769-P) was 20.7 nM and the IC50 (786-0) was 44.1 nM. It also gave an IC50 [2] of 19.9 nM, an IC50 (CAKI-2) of 20.1 nM and an IC50 (Lu-99 cell line [3]) of 1.5 nM. For the same molecule, the IC50 (Daudi) was 3.7 nM, the IC50 (MKN-1) was 4.6 nM and the IC50 (HCT-116) was 4.8 nM. It also gave an IC50 (MIA PaCa-2) of 5.2 nM, an IC50 (UMUC3) of 5.7 nM and an IC50 (MKN-45) of 6.1 nM. The IC50 (DU-4475) was 6.4 nM, the IC50 (A549 [4]) was 6.5 nM and the IC50 (CWR22R) was 8 nM. It also gave an IC50 (T47D) of 8.4 nM, an IC50 (HepG2) of 8.5 nM and an IC50 (MDA-MB-231) of 14 nM. It also gave an inhibition in vivo at 5 mg/kg (A549 [5]) of 65%, an inhibition in vivo at 5 mg/kg (Lu-99 cell line [6]) of 104% and an IC50 (Caov-3 cell line) of 5.1 nM. The IC50 (PA-1) was 5 nM, the IC50 [7] was 5.6 nM and the IC50 (SK-OV-3) was 6.3 nM. For the same molecule, the IC50 (OV-90) was 8.8 nM, the IC50 (SW626) was 9.4 nM and the IC50 (OVCAR-3) was 12 nM. It also gave an IC50 (A2780) of 10 nM, an IC50 [8] of 13 nM and an IC50 (RMG-I) of 15 nM. It also gave an IC50 [9] of 46 nM.
